Results reported in article PMC11920416 (Nature Communications, 2025).

Biological target: T1, porcine ficolin 2 (FCN2) (Sus scrofa, UniProt Q29041)
T1 sequence (Q29041 27-323): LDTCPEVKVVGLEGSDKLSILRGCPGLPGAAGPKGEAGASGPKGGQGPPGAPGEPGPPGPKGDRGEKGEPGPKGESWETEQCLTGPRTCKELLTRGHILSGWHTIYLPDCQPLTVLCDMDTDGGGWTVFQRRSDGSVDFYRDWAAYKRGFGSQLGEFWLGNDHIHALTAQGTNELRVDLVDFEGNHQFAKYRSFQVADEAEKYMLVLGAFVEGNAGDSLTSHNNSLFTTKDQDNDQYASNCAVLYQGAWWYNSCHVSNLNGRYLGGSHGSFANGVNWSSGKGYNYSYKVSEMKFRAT
Format: biochemical
Conditions: 60% (v/v) pig serum, 37 °C, 20 min; PMOXA-coated NPs; S2 site, competitive

CC(=O)N[C@H]1C(O)O[C@H](CO)[C@@H](O)[C@@H]1O (stereo partly shown) [GlcNAc]
IC50: 67 mM
